From patent US20250171438A1 (Agios Pharmaceuticals, Inc., priority 2022, published 2025)

The molecules below were run against T1, human PAH with the R408W mutation (Homo sapiens, UniProt P00439, R408W) (assay: Cell Based Phenylalanine Flux Assay). Settings: A375 cells expressing human R408W PAH; 24 hrs compound incubation; 13C-Tyrosine by LC-MS; average where tested multiple times; read-out: AC50.
T1 construct: expressed in transfected cells
T1 sequence (P00439 1-452 R408W): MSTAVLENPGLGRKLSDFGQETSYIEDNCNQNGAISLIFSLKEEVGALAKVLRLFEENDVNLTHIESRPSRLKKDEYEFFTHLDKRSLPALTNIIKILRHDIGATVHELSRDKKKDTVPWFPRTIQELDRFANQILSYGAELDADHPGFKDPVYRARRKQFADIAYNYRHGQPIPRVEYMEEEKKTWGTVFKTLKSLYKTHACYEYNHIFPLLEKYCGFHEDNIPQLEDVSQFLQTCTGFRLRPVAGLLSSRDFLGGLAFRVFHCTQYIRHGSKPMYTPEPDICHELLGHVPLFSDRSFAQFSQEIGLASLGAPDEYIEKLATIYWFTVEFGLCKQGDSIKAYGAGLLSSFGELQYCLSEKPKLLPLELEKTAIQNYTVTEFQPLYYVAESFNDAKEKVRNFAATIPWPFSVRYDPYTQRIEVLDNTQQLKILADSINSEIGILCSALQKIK

AC50 | Compound
< 500 nM | Cn1cc(C(=O)N2CCc3[nH]cnc3[C@H]2c2nc3c(F)cccc3s2)c(C(F)(F)F)n1 [Example 1613, (S)-(4-(4-fluorobenzo[d]thiazol-2-yl)-6,7-dihydro-1H-imidazo[4,5-c]pyridin-5(4H)-yl)(1-methyl-3-(trifluoromethyl)-1H-pyrazol-4-yl)methanone]
500 to 1000 nM | O=C(c1ocnc1C(F)F)N1CCc2[nH]cnc2[C@@H]1c1nc2c(F)cccc2s1 [Example 1616, (R)-(4-(difluoromethyl)oxazol-5-yl)(4-(4-fluorobenzo[d]thiazol-2-yl)-6,7-dihydro-1H-imidazo[4,5-c]pyridin-5(4H)-yl)methanone]
> 5000 nM | CN(C)Cc1ccc2c(C(=O)N3CCc4[nH]cnc4[C@@H]3c3nc4c(F)cccc4s3)cnn2c1 [Example 1620, (R)-(6-((dimethylamino)methyl)pyrazolo[1,5-a]pyridin-3-yl)(4-(4-fluorobenzo[d]thiazol-2-yl)-6,7-dihydro-1H-imidazo[4,5-c]pyridin-5(4H)-yl)methanone]
< 500 nM | O=C(c1oc(C2CC2)nc1C(F)F)N1CCc2[nH]cnc2[C@@H]1c1nc2ccccc2s1 [Example 1622, (R)-(4-(benzo[d]thiazol-2-yl)-6,7-dihydro-1H-imidazo[4,5-c]pyridin-5(4H)-yl)(2-cyclopropyl-4-(difluoromethyl)oxazol-5-yl)methanone]
< 500 nM | CN1CCN(c2nc(C(F)(F)F)c(C(=O)N3CCc4[nH]cnc4[C@H]3c3nc4c(F)cccc4s3)o2)CC1 [Example 1623, (S)-(4-(4-fluorobenzo[d]thiazol-2-yl)-6,7-dihydro-1H-imidazo[4,5-c]pyridin-5(4H)-yl)(2-(4-methylpiperazin-1-yl)-4-(trifluoromethyl)oxazol-5-yl)methanone]
< 500 nM | O=C(c1oc(CCC2CC2)nc1C(F)(F)F)N1CCc2[nH]cnc2[C@H]1c1nc2c(F)cccc2s1 [Example 1625]
< 500 nM | O=C(c1oc(CCC2CC2)nc1C(F)(F)F)N1CCc2[nH]cnc2[C@@H]1c1nc2c(F)cccc2s1 [Example 1626, (R)-(2-(2-cyclopropylethyl)-4-(trifluoromethyl)oxazol-5-yl)(4-(4-fluorobenzo[d]thiazol-2-yl)-6,7-dihydro-1H-imidazo[4,5-c]pyridin-5(4H)-yl)methanone]
500 to 1000 nM | O=C(c1sc(C2CC2)nc1Cl)N1CCc2[nH]cnc2[C@H]1c1nc2c(F)cccc2s1 [Example 1631]
1000 to 5000 nM | O=C(c1sc(C2CC2)nc1Cl)N1CCc2[nH]cnc2[C@@H]1c1nc2c(F)cccc2s1 [Example 1632, (R)-(4-chloro-2-cyclopropylthiazol-5-yl)(4-(4-fluorobenzo[d]thiazol-2-yl)-6,7-dihydro-1H-imidazo[4,5-c]pyridin-5(4H)-yl)methanone]
< 500 nM | O=C(c1sc(N2CCOCC2)nc1C(F)(F)F)N1CCc2[nH]cnc2[C@H]1c1nc2c(F)cccc2s1 [Example 1633, (S)-(4-(4-fluorobenzo[d]thiazol-2-yl)-6,7-dihydro-1H-imidazo[4,5-c]pyridin-5(4H)-yl)(2-morpholino-4-(trifluoromethyl)thiazol-5-yl)methanone]
500 to 1000 nM | O=C(c1sc(N2CCOCC2)nc1C(F)(F)F)N1CCc2[nH]cnc2[C@@H]1c1nc2c(F)cccc2s1 [Example 1634, (R)-(4-(4-fluorobenzo[d]thiazol-2-yl)-6,7-dihydro-1H-imidazo[4,5-c]pyridin-5(4H)-yl)(2-morpholino-4-(trifluoromethyl)thiazol-5-yl)methanone]
< 500 nM | O=C(c1conc1C(F)(F)F)N1CCc2[nH]cnc2[C@H]1c1nc2c(F)cccc2s1 [Example 1635, (S)-(4-(4-fluorobenzo[d]thiazol-2-yl)-6,7-dihydro-1H-imidazo[4,5-c]pyridin-5(4H)-yl)(3-(trifluoromethyl)isoxazol-4-yl)methanone]
500 to 1000 nM | O=C(c1conc1C(F)(F)F)N1CCc2[nH]cnc2[C@@H]1c1nc2c(F)cccc2s1 [Example 1636, (R)-(4-(4-fluorobenzo[d]thiazol-2-yl)-6,7-dihydro-1H-imidazo[4,5-c]pyridin-5(4H)-yl)(3-(trifluoromethyl)isoxazol-4-yl)methanone]

Further lines, the molecule ahead of its results:

Compound | AC50
CN(C)c1nnc(C(=O)N2CCc3[nH]cnc3[C@H]2c2nc3ccccc3s2)o1 [Example 1609] | < 500 nM
CN(C)c1nnc(C(=O)N2CCc3[nH]cnc3[C@@H]2c2nc3ccccc3s2)o1 [Example 1610, (R)-(4-(benzo[d]thiazol-2-yl)-6,7-dihydro-1H-imidazo[4,5-c]pyridin-5(4H)-yl)(5-(dimethylamino)-1,3,4-oxadiazol-2-yl)methanone] | 1000 to 5000 nM
O=C(c1oc(-c2ccccn2)nc1C(F)(F)F)N1CCc2[nH]cnc2[C@H]1c1nc2c(F)cccc2s1 [Example 1611, (S)-(4-(4-fluorobenzo[d]thiazol-2-yl)-6,7-dihydro-1H-imidazo[4,5-c]pyridin-5(4H)-yl)(2-(pyridin-2-yl)-4-(trifluoromethyl)oxazol-5-yl)methanone] | < 500 nM
O=C(c1oc(-c2ccccn2)nc1C(F)(F)F)N1CCc2[nH]cnc2[C@@H]1c1nc2c(F)cccc2s1 [Example 1612, (R)-(4-(4-fluorobenzo[d]thiazol-2-yl)-6,7-dihydro-1H-imidazo[4,5-c]pyridin-5(4H)-yl)(2-(pyridin-2-yl)-4-(trifluoromethyl)oxazol-5-yl)methanone] | < 500 nM
Cn1cc(C(=O)N2CCc3[nH]cnc3[C@@H]2c2nc3c(F)cccc3s2)c(C(F)(F)F)n1 [Example 1614, (R)-(4-(4-fluorobenzo[d]thiazol-2-yl)-6,7-dihydro-1H-imidazo[4,5-c]pyridin-5(4H)-yl)(1-methyl-3-(trifluoromethyl)-1H-pyrazol-4-yl)methanone] | < 500 nM
O=C(c1ocnc1C(F)F)N1CCc2[nH]cnc2[C@H]1c1nc2c(F)cccc2s1 [Example 1615] | < 500 nM
CN(C)Cc1ccc2c(C(=O)N3CCc4[nH]cnc4[C@H]3c3nc4c(F)cccc4s3)cnn2c1 [Example 1619, (S)-(6-((dimethylamino)methyl)pyrazolo[1,5-a]pyridin-3-yl)(4-(4-fluorobenzo[d]thiazol-2-yl)-6,7-dihydro-1H-imidazo[4,5-c]pyridin-5(4H)-yl)methanone] | 500 to 1000 nM
O=C(c1oc(C2CC2)nc1C(F)F)N1CCc2[nH]cnc2[C@H]1c1nc2ccccc2s1 [Example 1621] | < 500 nM
CN1CCN(c2nc(C(F)(F)F)c(C(=O)N3CCc4[nH]cnc4[C@@H]3c3nc4c(F)cccc4s3)o2)CC1 [Example 1624, (R)-(4-(4-fluorobenzo[d]thiazol-2-yl)-6,7-dihydro-1H-imidazo[4,5-c]pyridin-5(4H)-yl)(2-(4-methylpiperazin-1-yl)-4-(trifluoromethyl)oxazol-5-yl)methanone] | < 500 nM
O=C(c1oc(CN2CCOCC2)nc1C(F)(F)F)N1CCc2[nH]cnc2[C@H]1c1nc2ccccc2s1 [Example 1627] | < 500 nM
O=C(c1oc(CN2CCOCC2)nc1C(F)(F)F)N1CCc2[nH]cnc2[C@@H]1c1nc2ccccc2s1 [Example 1628, (R)-(4-(benzo[d]thiazol-2-yl)-6,7-dihydro-1H-imidazo[4,5-c]pyridin-5(4H)-yl)(2-(morpholinomethyl)-4-(trifluoromethyl)oxazol-5-yl)methanone] | < 500 nM
O=C(N1CCc2[nH]cnc2[C@H]1c1nc2ccccc2s1)C1(c2cnco2)CC1 [Example 1629] | 500 to 1000 nM
